Source: patent US20250154525A1, “PLANT VIRUS MOVEMENT PROTEINS AND METHODS OF USING SAME” (Molecular Transfer, Inc., priority 2016, published 2025)

Columns and labels:
Experiment in all cases: GFP plasmid transfection with DOTMA/DOPE plus plant virus movement protein derived peptides (Example 2)
Format in all cases: cell-based
HeLa Cells = details: 1-6 μL of transfection reagents
Experimental: (§1) Cells were plated to so that on the day of transfection the cells were 70% confluent in 96 well tissue culture plates. A DOMTA/DOPE Lipid solution (1:1 molar ratio) at 2 mg/mL in water were mixed with an equal volume of plant virus movement protein derived peptides that had the nucleic acid binding moiety RRRRRRRRRRRR (SEQ ID NO:109) or KKKKKKKKKKKKKKKK (SEQ ID NO: 102) covalently linked to the N-terminus, or C-terminus of each peptide during peptide synthesis. Peptides were at 2 mg/mL in water. The DOTMA/DOPE and the plant virus movement peptide solution the was diluted 1 to 1 (v/v) in water. DOMTA/DOPE/PEPTIDE solutions were added to 0.1 mL of a plasmid DNA solution (EF1Alpha eGFP plasmid) at 10 μg/mL in OptiMEM.
(§2) All solutions were at room temperature. A volume of 0.2 mL of a 10 μg/mL solution of DNA was aliquoted into each well of a non-tissue cultured treated plate. 1-6 μL of transfection reagents were added to DNA solutions respectively. The transfection reagent and DNA solution was mixed by pipetting up and down twice. Transfection complexes were formed for 10 minutes. After 10 minutes, 0.01 or 0.02 mL of the transfection complex was added to cells. HuVEC, HeLa, human adult keratinocytes, human primary adult fibroblast, and A549 cells all respectively received 0.01 mL of the transfection complex. Human skeletal muscle cells, mouse C2C12 cells, and Jurkat, cells received 0.02 mL of the transfection complex. Cells were incubated for 42 hours at 37° C. at 5% CO2. Plates were read on a fluorescent plate reader. Cells were also examined visually under a microscope to assess the extent of transfection (in terms of the percent of cells transfected) with a fluorescent microscope. Other modes of analysis, for example quantification with B-galactosidase or luciferase reports plasmids can also be used.

HuVec Cells = details: 42 hours
Experimental: as §1, §2

[1] = tested on: Human Primary Fibroblast Cells; details: 42 hours
Experimental: as §1, §2

[2] = value column 1 of 6, head not given, 1 µL transfection reagent
[3] = value column 3 of 6, head not given, 3 µL transfection reagent
[4] = value column 4 of 6, head not given, 4 µL transfection reagent

543 (RRRRRRRRRRRRVDFSHVDYGKWERKPIRCASMSRLGLRG) [compound 543]
Relative Fluorescence of Transfection of Hela Cells (HeLa Cells; 2 µL transfection reagent): 42502
Relative Fluorescence of Transfection of Hela Cells (HeLa Cells; 5 µL transfection reagent): 13793
Relative Fluorescence of Transfection of Hela Cells (HeLa Cells; [2]): 12174
Relative Fluorescence of Transfection of Hela Cells (HeLa Cells; [3]): 38779
Relative Fluorescence of Transfection of Hela Cells (HeLa Cells; [4]): 28451
Relative Fluorescence of Transfection of HuVEC Cells (HuVec Cells; Transfection Agent 1 μl): 26622 Rf
Relative Fluorescence of Transfection of HuVEC Cells (HuVec Cells; Transfection Agent 1.5 μl): 36742 Rf
Relative Fluorescence of Transfection of HuVEC Cells (HuVec Cells; Transfection Agent 2 μl): 42802 Rf
Relative Fluorescence of Transfection of HuVEC Cells (HuVec Cells; Transfection Agent 3 μl): 40584 Rf
Relative Fluorescence of Transfection of HuVEC Cells (HuVec Cells; Transfection Agent 4 μl): 32754 Rf
Relative Fluorescence of Transfection of HuVEC Cells (HuVec Cells; Transfection Agent 6 μl): 25492 Rf
Relative Fluorescence of Transfection of Human Primary Fibroblast Cells ([1]; Transfection Agent 1 μl): 30416 Rf
Relative Fluorescence of Transfection of Human Primary Fibroblast Cells ([1]; Transfection Agent 1.5 μl): 45401 Rf
Relative Fluorescence of Transfection of Human Primary Fibroblast Cells ([1]; Transfection Agent 2 μl): 39786 Rf
Relative Fluorescence of Transfection of Human Primary Fibroblast Cells ([1]; Transfection Agent 3 μl): 33091 Rf
Relative Fluorescence of Transfection of Human Primary Fibroblast Cells ([1]; Transfection Agent 4 μl): 28648 Rf
Relative Fluorescence of Transfection of Human Primary Fibroblast Cells ([1]; Transfection Agent 6 μl): 28698 Rf

545 (KSVPNRTRTYIKLKRLRFKGAPYKAWRRRRRRRRRRRR) [compound 545]
Relative Fluorescence of Transfection of Hela Cells (HeLa Cells; 2 µL transfection reagent): 28529
Relative Fluorescence of Transfection of Hela Cells (HeLa Cells; 5 µL transfection reagent): 13009
Relative Fluorescence of Transfection of Hela Cells (HeLa Cells; [2]): 11056
Relative Fluorescence of Transfection of Hela Cells (HeLa Cells; [3]): 28943
Relative Fluorescence of Transfection of Hela Cells (HeLa Cells; [4]): 14693
Relative Fluorescence of Transfection of HuVEC Cells (HuVec Cells; Transfection Agent 1 μl): 26545 Rf
Relative Fluorescence of Transfection of HuVEC Cells (HuVec Cells; Transfection Agent 1.5 μl): 36649 Rf
Relative Fluorescence of Transfection of HuVEC Cells (HuVec Cells; Transfection Agent 2 μl): 46890 Rf
Relative Fluorescence of Transfection of HuVEC Cells (HuVec Cells; Transfection Agent 3 μl): 34047 Rf
Relative Fluorescence of Transfection of HuVEC Cells (HuVec Cells; Transfection Agent 4 μl): 30893 Rf
Relative Fluorescence of Transfection of HuVEC Cells (HuVec Cells; Transfection Agent 6 μl): 27133 Rf
Relative Fluorescence of Transfection of Human Primary Fibroblast Cells ([1]; Transfection Agent 1 μl): 34309 Rf
Relative Fluorescence of Transfection of Human Primary Fibroblast Cells ([1]; Transfection Agent 1.5 μl): 48184 Rf
Relative Fluorescence of Transfection of Human Primary Fibroblast Cells ([1]; Transfection Agent 2 μl): 37497 Rf
Relative Fluorescence of Transfection of Human Primary Fibroblast Cells ([1]; Transfection Agent 3 μl): 29067 Rf
Relative Fluorescence of Transfection of Human Primary Fibroblast Cells ([1]; Transfection Agent 4 μl): 28928 Rf
Relative Fluorescence of Transfection of Human Primary Fibroblast Cells ([1]; Transfection Agent 6 μl): 29256 Rf

541 (RRRRRRRRRRRRGKWERKPIRCAS) [compound 541]
Relative Fluorescence of Transfection of Hela Cells (HeLa Cells; 2 µL transfection reagent): 36476
Relative Fluorescence of Transfection of Hela Cells (HeLa Cells; 5 µL transfection reagent): 20473
Relative Fluorescence of Transfection of Hela Cells (HeLa Cells; [2]): 17145
Relative Fluorescence of Transfection of Hela Cells (HeLa Cells; [3]): 37105
Relative Fluorescence of Transfection of Hela Cells (HeLa Cells; [4]): 23644
Relative Fluorescence of Transfection of HuVEC Cells (HuVec Cells; Transfection Agent 1 μl): 27405 Rf
Relative Fluorescence of Transfection of HuVEC Cells (HuVec Cells; Transfection Agent 1.5 μl): 46446 Rf
Relative Fluorescence of Transfection of HuVEC Cells (HuVec Cells; Transfection Agent 2 μl): OVER
Relative Fluorescence of Transfection of HuVEC Cells (HuVec Cells; Transfection Agent 3 μl): 40401 Rf
Relative Fluorescence of Transfection of HuVEC Cells (HuVec Cells; Transfection Agent 4 μl): 31568 Rf
Relative Fluorescence of Transfection of HuVEC Cells (HuVec Cells; Transfection Agent 6 μl): 28125 Rf
Relative Fluorescence of Transfection of Human Primary Fibroblast Cells ([1]; Transfection Agent 1 μl): 35030 Rf
Relative Fluorescence of Transfection of Human Primary Fibroblast Cells ([1]; Transfection Agent 1.5 μl): 44894 Rf
Relative Fluorescence of Transfection of Human Primary Fibroblast Cells ([1]; Transfection Agent 2 μl): 42097 Rf
Relative Fluorescence of Transfection of Human Primary Fibroblast Cells ([1]; Transfection Agent 3 μl): 31837 Rf
Relative Fluorescence of Transfection of Human Primary Fibroblast Cells ([1]; Transfection Agent 4 μl): 29537 Rf
Relative Fluorescence of Transfection of Human Primary Fibroblast Cells ([1]; Transfection Agent 6 μl): 28921 Rf
